Measured values from patent publication US20240308996A1, “PYRIDOPYRIDINES AND DERIVATIVES THEREOF AS SELECTIVE KINASE INHIBITORS” (University of Sharjah, priority 2023, published 2024).

Columns and labels:
IGROV1 = test: NCI-60 cell line panel: IGROV1; format: cell-based; conditions: Ovarian Cancer, total growth inhibition
Description: (§1) It was carried out at the NCI, Bethesda, MD, USA, utilizing their standard protocol.

NCI-H322M = test: NCI-60 cell line panel: NCI-H322M; format: cell-based; conditions: Non-Small Cell Lung Cancer, total growth inhibition
Description: as §1

HS 578T = test: NCI-60 cell line panel: HS 578T; format: cell-based; conditions: Breast Cancer, HS 578T; total growth inhibition
Description: as §1

A498 = test: NCI-60 cell line panel: A498; format: cell-based; conditions: Renal Cancer, total growth inhibition
Description: as §1

OVCAR-3 = test: NCI-60 cell line panel: OVCAR-3; format: cell-based; conditions: Ovarian Cancer, total growth inhibition
Description: as §1

NCI-H522 = test: NCI-60 cell line panel: NCI-H522; format: cell-based; parameters: TGI: unit not given here; conditions: Non-Small Cell Lung Cancer
Description: as §1

PC-3 = test: NCI-60 cell line panel: PC-3; format: cell-based; conditions: Prostate Cancer
Description: as §1

UACC-257 = test: NCI-60 cell line panel: UACC-257; format: cell-based; conditions: Melanoma
Description: as §1

HT29 = test: NCI-60 cell line panel: HT29; format: cell-based
Description: as §1

SNB-75 = test: NCI-60 cell line panel: SNB-75; format: cell-based; parameters: TGI: unit not given here; conditions: CNS Cancer, total growth inhibition
Description: as §1

UO-31 = test: NCI-60 cell line panel: UO-31; format: cell-based; parameters: TGI: unit not given here; conditions: Renal Cancer, total growth inhibition
Description: as §1

TK-10 = test: NCI-60 cell line panel: TK-10; format: cell-based; conditions: Renal Cancer
Description: as §1

U251 = test: NCI-60 cell line panel: U251; format: cell-based; parameters: TGI: unit not given here
Description: as §1

DU-145 = test: NCI-60 cell line panel: DU-145; format: cell-based; conditions: Prostate Cancer, total growth inhibition
Description: as §1

SW-620 = test: NCI-60 cell line panel: SW-620; format: cell-based; conditions: Colon Cancer, total growth inhibition
Description: as §1

NCI-H226 = test: NCI-60 cell line panel: NCI-H226; format: cell-based; conditions: Non-Small Cell Lung Cancer
Description: as §1

MDA-MB-231/ATCC = test: NCI-60 cell line panel: MDA-MB-231/ATCC; format: cell-based; conditions: Breast Cancer
Description: as §1

HCT-15 = test: NCI-60 cell line panel: HCT-15; format: cell-based; conditions: Colon Cancer, total growth inhibition
Description: as §1

SN12C = test: NCI-60 cell line panel: SN12C; format: cell-based; conditions: Renal Cancer, total growth inhibition
Description: as §1

SK-OV-3 = test: NCI-60 cell line panel: SK-OV-3; format: cell-based; conditions: Ovarian Cancer, total growth inhibition
Description: as §1

HOP-62 = test: NCI-60 cell line panel: HOP-62; format: cell-based; conditions: Non-Small Cell Lung Cancer
Description: as §1

MOLT-4 = test: NCI-60 cell line panel: MOLT-4; format: cell-based; parameters: TGI: unit not given here; conditions: Leukemia, total growth inhibition
Description: as §1

RXF 393 = test: NCI-60 cell line panel: RXF 393; format: cell-based; conditions: Renal Cancer, total growth inhibition
Description: as §1

MCF7 = test: NCI-60 cell line panel: MCF7; format: cell-based; conditions: Breast Cancer, total growth inhibition
Description: as §1

OVCAR-8 = test: NCI-60 cell line panel: OVCAR-8; format: cell-based; conditions: Ovarian Cancer, total growth inhibition, in µM (unit assumed)
Description: as §1

BT-549 = test: NCI-60 cell line panel: BT-549; format: cell-based; conditions: Breast Cancer, total growth inhibition
Description: as §1

MDA-MB-468 = test: NCI-60 cell line panel: MDA-MB-468; format: cell-based; conditions: Breast Cancer, total growth inhibition
Description: as §1

786-0 = test: NCI-60 cell line panel: 786-0; format: cell-based; conditions: Renal Cancer, total growth inhibition
Description: as §1

NCI/ADR-RES = test: NCI-60 cell line panel: NCI/ADR-RES; format: cell-based; parameters: TGI: unit not given here; conditions: Ovarian Cancer, total growth inhibition
Description: as §1

MALME-3M = test: NCI-60 cell line panel: MALME-3M; format: cell-based; conditions: Melanoma
Description: as §1

panel of 50 kinases = test: 50-kinase panel; format: biochemical
EKVX = test: NCI-60 cell line panel: EKVX; format: cell-based; conditions: Non-Small Cell Lung Cancer, total growth inhibition, in µM (unit assumed)
Description: as §1

NCI-H23 = test: NCI-60 cell line panel: NCI-H23; format: cell-based; conditions: Non-Small Cell Lung Cancer
Description: as §1

SK-MEL-28 = test: NCI-60 cell line panel: SK-MEL-28; format: cell-based; conditions: Melanoma, total growth inhibition
Description: as §1

ACHN = test: NCI-60 cell line panel: ACHN; format: cell-based; conditions: Renal Cancer, total growth inhibition
Description: as §1

OVCAR-5 = test: NCI-60 cell line panel: OVCAR-5; format: cell-based; conditions: Ovarian Cancer, total growth inhibition
Description: as §1

SF-268 = test: NCI-60 cell line panel: SF-268; format: cell-based; conditions: CNS Cancer, total growth inhibition
Description: as §1

NCI-H460 = test: NCI-60 cell line panel: NCI-H460; format: cell-based; conditions: Non-Small Cell Lung Cancer, total growth inhibition
Description: as §1

OVCAR-4 = test: NCI-60 cell line panel: OVCAR-4; format: cell-based; conditions: Ovarian Cancer, total growth inhibition, in µM (unit assumed)
Description: as §1

CCRF-CEM = test: NCI-60 cell line panel: CCRF-CEM; format: cell-based; conditions: Leukemia
Description: as §1

SR = test: NCI-60 cell line panel: SR; format: cell-based; conditions: Leukemia, total growth inhibition
Description: as §1

A549/ATCC = test: NCI-60 cell line panel: A549/ATCC; format: cell-based; conditions: Non-Small Cell Lung Cancer, total growth inhibition
Description: as §1

SK-MEL-2 = test: NCI-60 cell line panel: SK-MEL-2; format: cell-based; parameters: TGI: unit not given here; conditions: Melanoma
Description: as §1

CAKI-1 = test: NCI-60 cell line panel: CAKI-1; format: cell-based; parameters: TGI: unit not given here; conditions: Renal Cancer, total growth inhibition
Description: as §1

M14 = test: NCI-60 cell line panel: M14; format: cell-based; conditions: Melanoma
Description: as §1

SNB-19 = test: NCI-60 cell line panel: SNB-19; format: cell-based; conditions: CNS Cancer, total growth inhibition
Description: as §1

COLO 205 = test: NCI-60 cell line panel: COLO 205; format: cell-based; parameters: TGI: unit not given here; conditions: Colon Cancer
Description: as §1

[1] = tested on: hepatocellular carcinoma cell lines; test: Screening against HCC cell lines; format: cell-based
Description: The target compounds were tested against hepatocellular carcinoma cell lines. Compounds 1j. 13a. 13b. 13c. […] The mean inhibition percentage values are illustrated in Table 9.
(§2) Two HCC cell lines (Hep3B and HepG2) were used for screening the antiproliferative activity of the synthesized compounds. The cell lines were obtained from the European Collection of Cell Cultures (ECACC, UK) and maintained in Dulbecco's Modified Eagle Medium (DMEM: Sigma-Aldrich) supplemented with 10% fetal bovine serum (FBS) and 1% penicillin/streptomycin and incubated at 37° C. in a 5% CO2 air atmosphere. In addition, WI-38 normal cell line was used to investigate the safety of these compounds.
(§3) MTT assay was conducted to calculate the IC50 of the compounds following the reported procedure . Briefly, the cells were seeded in 96-well tissue culture plates with a density of 5×10^4 cells/well and incubated overnight at 37° C. in a 5% CO2 air atmosphere. After that, cells were treated with the newly synthesized compounds or sorafenib as a positive control. DMSO was used as a negative control. After 48 h, the media were aspirated, and replaced with media containing 0.5 mg/mL of MTT tetrazolium dye (Sigma-Aldrich) for 2 h at 37° C. Finally, the media were removed and 200 μL of DMSO was added to solubilize the formazan crystals. Absorbance was then measured at 570 nm using Varioskan Flash multimode plate reader (Thermo Scientific, Massachusetts, USA).

HepG2 = test: MTT assay, HepG2 HCC cell line; format: cell-based; conditions: Homo sapiens, 48 h, mean of triplicate assays ± SEM
Description: as §2
as §3, with “After that, cells were treated with the newly synthesized compounds or sorafenib as a positive control.” left out

Hep3B = test: MTT assay, Hep3B HCC cell line; format: cell-based; conditions: Homo sapiens, 48 h, mean of triplicate assays ± SEM
Description: as §2
as §3, with “After that, cells were treated with the newly synthesized compounds or sorafenib as a positive control.” left out

Compound: CNC(=O)c1cc(Oc2ccc(NC(=O)Nc3ccc(Cl)c(C(F)(F)F)c3)cc2)ccn1 [Sorafenib, reference compound]
- TGI (IGROV1): 10 µM
- TGI (NCI-H322M): 5.01 µM
- TGI (HS 578T): 3.98 µM
- TGI (A498): 3.16 µM
- TGI (OVCAR-3): 3.98 µM
- IC50 (NCI-H522; Homo sapiens): 2 µM
- TGI (NCI-H522; total growth inhibition): 5.01
- IC50 (PC-3; Homo sapiens): 2 µM
- TGI (PC-3; total growth inhibition): 5.01 µM
- IC50 (UACC-257; Homo sapiens): 2 µM
- TGI (UACC-257; total growth inhibition): 5.01 µM
- TGI (HT29; Colon Cancer, total growth inhibition): 5.01 µM
- IC50 (HT29; Homo sapiens, HT-29, Colon Cancer): 2 µM
- TGI (SNB-75): 3.98
- TGI (UO-31): 6.31
- IC50 (TK-10; Homo sapiens): 3.98 µM
- TGI (TK-10; total growth inhibition): 10 µM
- TGI (U251; CNS Cancer, total growth inhibition): 3.16
- IC50 (U251; Homo sapiens, U-251, CNS Cancer): 2 µM
- TGI (DU-145): 7.94 µM
- TGI (SW-620): 5.01 µM
- IC50 (NCI-H226; Homo sapiens): 2 µM
- TGI (NCI-H226; total growth inhibition): 3.16 µM
- TGI (MDA-MB-231/ATCC; total growth inhibition): 3.16 µM
- IC50 (MDA-MB-231/ATCC; Homo sapiens): 1.26 µM
- TGI (HCT-15): 3.16 µM
- TGI (SN12C): 3.16 µM
- TGI (SK-OV-3): 5.01 µM
- IC50 (HOP-62; Homo sapiens): 2 µM
- TGI (HOP-62; total growth inhibition): 3.16 µM
- TGI (MOLT-4): 100
- TGI (RXF 393): 5.01 µM
- TGI (MCF7): 7.94 µM
- TGI (OVCAR-8): 12.59
- TGI (BT-549): 3.98 µM
- TGI (MDA-MB-468): 7.94 µM
- TGI (786-0): 5.01 µM
- TGI (NCI/ADR-RES): 7.94
- IC50 (MALME-3M; Homo sapiens): 2 µM
- TGI (MALME-3M; total growth inhibition, in µM (unit assumed)): 39.81
- number of kinases inhibited (more than 50% inhibition) (panel of 50 kinases): 22 kinases
- TGI (EKVX): 19.95
- IC50 (NCI-H23; Homo sapiens): 2 µM
- TGI (NCI-H23; total growth inhibition): 5.01 µM
- TGI (SK-MEL-28): 2.51 µM
- TGI (ACHN): 10 µM
- TGI (OVCAR-5): 6.31 µM
- TGI (SF-268): 3.98 µM
- TGI (NCI-H460): 5.01 µM
- TGI (OVCAR-4): 25.12
- IC50 (CCRF-CEM; Homo sapiens): 2 µM
- TGI (CCRF-CEM; total growth inhibition): 5.01 µM
- TGI (SR): 63.1 µM
- TGI (A549/ATCC): 7.94 µM
- IC50 (SK-MEL-2; Homo sapiens): 2 µM
- TGI (SK-MEL-2; total growth inhibition): 6.31
- TGI (CAKI-1): 12.59
- IC50 (M14; Homo sapiens): 2 µM
- TGI (M14; total growth inhibition): 3.16 µM
- TGI (SNB-19): 3.98 µM
- TGI (COLO 205; total growth inhibition): 3.16
- IC50 (COLO 205; Homo sapiens): 2 µM

Compound: O=C(Nc1ccc(-c2cc(C(=O)Nc3ccccn3)c3ncccc3n2)cc1)Nc1ccc(F)c(C(F)(F)F)c1 [Compound 1j, 2-(4-(3-(4-Fluoro-3-(trifluoromethyl)phenyl)ureido)phenyl)-N-(pyridin-2-yl)-1,5-naphthyridine-4-carboxamide]
- inhibition activity against hepatocellular carcinoma cell lines compared with sorafenib [1]: higher inhibition activity than sorafenib
- IC50 (HepG2): 3.68 ± 0.22 µM
- IC50 (Hep3B): 3.87 ± 0.13 µM

Compound: CNC(=O)c1cc(-c2ccc(NC(=O)Nc3ccc(N4CCOCC4)c(C(F)(F)F)c3)cc2)nc2cccnc12 [Compound 13a, N-Methyl-2-(4-(3-(4-morpholino-3-(trifluoromethyl)phenyl)ureido)phenyl)-1,5-naphthyridine-4-carboxamide]
- inhibition activity against hepatocellular carcinoma cell lines compared with sorafenib [1]: higher inhibition activity than sorafenib
- IC50 (HepG2): 1.27 ± 0.14 µM
- IC50 (Hep3B): 1.89 ± 0.18 µM

Compound: CNC(=O)c1cc(-c2ccc(NC(=S)Nc3cc(C(F)(F)F)cc(C(F)(F)F)c3)cc2)nc2cccnc12 [Compound 1m, 2-(4-(3-(3,5-Bis(trifluoromethyl)phenyl)thioureido)phenyl)-N-methyl-1,5-naphthyridine-4-carboxamide]
- inhibition activity against hepatocellular carcinoma cell lines compared with sorafenib [1]: inhibition activity comparable to sorafenib
- IC50 (HepG2): 5.74 ± 0.2 µM
- IC50 (Hep3B): 6.56 ± 0.31 µM
